From patent US11926644B2, “Syntheses, activities, and methods of use of dihydronicotinamide riboside derivatives” (Cornell University, priority 2015, dated 2024)

Assays:
[1] = system: HEK293 cells; test: NAD+ measurement in HEK293 cells (NAD+ cycling assay); details: for cellular NAD concentration: 6 hours of incubation, 50-500 μM
Protocol: Cell number were counted using hemocytometer.
After 6 hours of incubation, cells were harvested with Trypsin. A cell count was obtained from each cell suspension by hemacytometer. The cell pellets were used for NAD^+ measurement.
Water-only and nicotinamide riboside (NR) control treatments were run.
HEK cells were plated in 6-well plates until 90% confluent. […] After 6 hours of incubation, cells were harvested with Trypsin. A cell count was obtained from each cell suspension by hemacytometer. The cell pellets were used for NAD^+ measurement.

[2] = system: INS1 cells; test: Glucose-induced insulin secretion test in INS1 cells with hydrogen peroxide challenge; assay type: cell-based; details: 1 mM, 100 μM hydrogen peroxide, 15 mmol/l glucose
Protocol: To induce insulin secretion, INS1 cells were seeded in 6-well plate. The cells were accommodated to low glucose RPMI-1640 media with 5 mmol/1 D-glucose overnight. Insulin secretion was assayed in HEPES balanced salt solution (HESS) (114 mmol/1 NaCl, 4.7 mmol/1 KCl, 1.2 mmol/1 KH2PO4, 1.16 mmol/1 MgSO4, 20 mmol/1 HEPES, 2.5 mmol/1 CaCl2, 25.5 mmol/1 NaHCO3, and 0.2% bovine serum albumin [essentially fatty acid free], pH 7.2). Cells wore washed in 1 ml HESS with 3 mmol/1 glucose followed by a 2 hr preincubation in 2 ml of the same buffer. Insulin secretion was then measured by incubating 1 hr 1 ml of HESS containing the 3 mmol/1 or 15 mmol/1 glucose concentration. The media was then collected for insulin analysis using RayBio™ Rat Insulin ELISA kit according to manufacturer's manual. In hydrogen peroxide challenge, 100 μM hydrogen peroxide were added to media together with 3 mmol/1 glucose containing HESS and incubated for 2 hr before switch to 15 mmol/l glucose containing HBSS for insulin secretion.

[3] = HEK cells, 50 μM, 6 hours, percentages of average NAD^+ as compared to control

Row | Compound | Average NAD^+ (pmoles/10^6 cells) [1, 3] | cellular NAD concentration ([1]; HEK cells) | other results
1 | NC(=O)c1ccc[n+]([C@@H]2O[C@H](CO)[C@@H](O)[C@H]2O)c1 [NR, nicotinamide riboside] | – | – | increase in NAD^+ ([1]; HEK293, 1000 mM as printed (1 mM elsewhere in the source)): 148%; Average NAD^+ (pmoles/10^6 cells) ([1]; HEK293, 1000 mM as printed in table (1 mM elsewhere in the source), compared to control): 148%; insulin secretion level under hydrogen peroxide [2]: restored the insulin secretion level back to a similar extent as untreated control
2 | CCCCCCCCOC(=O)C1=CN([C@@H]2O[C@H](CO)[C@H](O)[C@@H]2O)C=CC1 [Oct NaR—H, octyl-1-((2R,3S,4R,5R)-3,4-dihydroxy-5-(hydroxymethyl)tetrahydrofuran-2-yl)-1,4-dihydropyridine-3-carboxylate] | 112% | – | –
3 | CCCCOC(=O)C1=CN([C@@H]2O[C@H](CO)[C@H](O)[C@@H]2O)C=CC1 [Bu NaR—H, butyl-1-((2R,3S,4R,5R)-3,4-dihydroxy-5-(hydroxymethyl)tetrahydrofuran-2-yl)-1,4-dihydropyridine-3-carboxylate] | 124% | – | –
4 | CCCCCCCOC(=O)C1=CN([C@@H]2O[C@H](CO)[C@H](O)[C@@H]2O)C=CC1 [Hep NaR—H, heptyl-1-((2R,3S,4R,5R)-3,4-dihydroxy-5-(hydroxymethyl)tetrahydrofuran-2-yl)-1,4-dihydropyridine-3-carboxylate] | 124% | – | –
5 | CCOC(=O)C1=CN([C@@H]2O[C@H](CO)[C@H](O)[C@@H]2O)C=CC1 [Et NaR-H, ethyl-1-((2R,3S,4R,5R)-3,4-dihydroxy-5-(hydroxymethyl)tetrahydrofuran-2-yl)-1,4-dihydropyridine-3-carboxylate] | – | increased | –
6 | CCCOC(=O)C1=CN([C@@H]2O[C@H](CO)[C@H](O)[C@@H]2O)C=CC1 [Pr NaR-H, propyl-1-((2R,3S,4R,5R)-3,4-dihydroxy-5-(hydroxymethyl)tetrahydrofuran-2-yl)-1,4-dihydropyridine-3-carboxylate] | – | increased | –
